How the values were obtained:
[1] = test system: ATF4 in thapsigargin stimulated CCRF-CEM cells (PERK); experiment: CCRF-CEM thapsigargin (TG) ATF4 ELISA; assay type: cell-based; details: Homo sapiens, 1 μM thapsigargin
Description: CCRF-CEM leukemia cells (catalog #CCL-116) were obtained from the American Type Culture Collection (ATTC, Manassas, VA). Briefly, cells were grown in RPMI-1640 medium supplemented with 10% heat-inactivated fetal bovine serum (Invitrogen, Carlsbad, CA) and 1% Penicillin/Streptomycin/L-Glutamine at 37° C., 5% CO2, and 95% humidity. Cells were expanded until reaching one million cells per mL at which time they were subcultured or harvested for assay use. One million five hundred thousand cells per well in 1 mL complete growth medium were dispensed into 12-well plates and incubated overnight. A serial dilution of test compound was added and cells were incubated at 37° C., 5% CO2, and 95% for three hours, then 1 μM thapsigargin was added and cells were incubated for an additional hour at 37° C., 5% CO2, and 95%. Cells were lysed then ATF4 levels were measured using an ELISA assay (Proteintech, Rosemont, IL). Absorbance was measured at 450 nm and 544 nM using a Synergy2 or equivalent reader (Biotek, Winooski VT). Data was analyzed using PRISM software (Graphpad, San Diego, CA) to calculate IC50 values.

[2] = test system: H2030 solid tumor spheroids; experiment: Spheroid proliferation assay, H2030; assay type: cell-based; details: for spheroid growth, combination treatment: 96 h
Description: Non Small Cell Lung Cancer (NSCLC) cell lines H358 (catalog #CRL-5807) and H2030 (catalog #CRL-5914), and fibrosarcoma line HT-1080 (catalog […]) were obtained from the American Type Culture Collect (ATTC, Manassas, VA). Cells were grown in RPMI-1640 medium supplemented with 10% heat-inactivated fetal bovine serum and 1% Penicillin/Streptomycin/L-Glutamine (Invitrogen, Carlsbad, CA) at 37° C., 5% CO2, and 95% humidity and maintained at 50-80% confluency until use. 500-1000 cells were plated in 96-well ultra-low attachment plates (Corning, Glendale, AZ) with complete growth media at 80 μL/well and incubated overnight at 37° C., 5% CO2, and 95% humidity to form spheroids. The next day, serial dilutions of test compounds were prepared in complete growth media and 20 μL/well media containing compound titers was added to spheroids in triplicate. […] At the end of the incubation, spheroids were lysed with 100 μL/well CellTiter-Glo 3D Viability Assay (Promega, Madison, WI) and luminescence was detected using Synergy2 or equivalent reader (Biotek, Winooski, VT). Data was analyzed using GraphPad Prism software (GraphPad, San Diego, CA) to calculate IC50 values.

[3] = test system: H358 solid tumor spheroids; experiment: Spheroid proliferation assay, H358; assay type: cell-based
Description: Non Small Cell Lung Cancer (NSCLC) cell lines H358 (catalog #CRL-5807) and H2030 (catalog #CRL-5914), and fibrosarcoma line HT-1080 (catalog […]) were obtained from the American Type Culture Collect (ATTC, Manassas, VA). Cells were grown in RPMI-1640 medium supplemented with 10% heat-inactivated fetal bovine serum and 1% Penicillin/Streptomycin/L-Glutamine (Invitrogen, Carlsbad, CA) at 37° C., 5% CO2, and 95% humidity and maintained at 50-80% confluency until use. 500-1000 cells were plated in 96-well ultra-low attachment plates (Corning, Glendale, AZ) with complete growth media at 80 μL/well and incubated overnight at 37° C., 5% CO2, and 95% humidity to form spheroids. The next day, serial dilutions of test compounds were prepared in complete growth media and 20 μL/well media containing compound titers was added to spheroids in triplicate. Spheroids were then incubated with test compounds for 5 days under the same conditions. At the end of the incubation, spheroids were lysed with 100 μL/well CellTiter-Glo 3D Viability Assay (Promega, Madison, WI) and luminescence was detected using Synergy2 or equivalent reader (Biotek, Winooski, VT). Data was analyzed using GraphPad Prism software (GraphPad, San Diego, CA) to calculate IC50 values.

[4] = test system: HT-1080 cell line with GCN2 or PERK knockdown; experiment: HT-1080 shRNA knockdown assay; assay type: cell-based
Description: Fibrosarcoma cell line HT-1080 (catalog […]) was obtained from the American Type Culture Collect (ATTC, Manassas, VA). Cells were grown in RPMI-1640 medium supplemented with 10% heat-inactivated fetal bovine serum and 1% Penicillin/Streptomycin/L-Glutamine (Invitrogen, Carlsbad, CA) at 37° C., 5% CO2, and 95% humidity and maintained at 50-80% confluency until use. shRNAs-expressing constructs targeting PERK, GCN2 or scrambled control were obtained from MISSION (Sigma, St. Louis, MO) and lentiviruses containing each construct were produced in-house. Cells were plated at 400,000 cells/well in 6-well tissue culture plates (ThermoFisher Scientific, Waltham, MA) with complete growth media and incubated overnight at 37° C., 5% CO2, and 95% humidity to attach. The next day, existing media was removed from each well and replenished with 1 mL/well fresh media containing 5 μg/mL polybrene (VectorBuilder, Chicago, IL). Cells were transduced with 200 μL/well corresponding lentivirus for 24 hours before being processed for western blot and cell proliferation assays.

[5] = test system: LoVo colorectal xenograft; experiment: LoVo xenograft efficacy model; assay type: in vivo, mice; details: 5 mg/kg BID, 22 days of dosing
Description: The LoVo xenograft model was performed in compliance with all the laws, regulations and guidelines of the National Institutes of Health (NIH) and with the approval of the Animal Care and Use Committee of Crown Bioscience (Taicang, China), an AAALAC accredited facility. Food and water were provided ad libitum. […] Female Balb/c nude mice (5-9 weeks old) were inoculated subcutaneously just below the right high axilla with ten million cells in Dulbecco's Phosphate Buffered Saline, using a 27-gauge needle and syringe. When tumor burdens reached 100 mm 3 on average on day 6, mice were randomly assigned into groups such that the mean tumor burden for all groups was within 10% of the overall mean tumor burden for the study population. Groups were treated on days 6-27 as follows: vehicle control (dosed orally) (n=9); Compound 2 dosed orally at 5 mg/kg BID (n=9); Compound 2 dosed orally at 1 mg/kg BID. Tumor volume and body weights were measured three time per week. Tumor burden (mg) was estimated from caliper measurements by the formula: tumor burden (mg=mm 3)=(length×width 2)/2.

Cn1cc(-c2cccc(NS(=O)(=O)c3cc(Cl)cc(CO)c3Cl)c2F)c2c(N)ncnc21 [Example 2, N-(3-(4-amino-7-methyl-7H-pyrrolo[2,3-d]pyrimidin-5-yl)-2-fluorophenyl)-2,5-dichloro-3-(hydroxymethyl)benzenesulfonamide]
IC50 [1]: ≤ 0.1 µM | cell regression, single agent ([2]; 5 days, FIG. 11A): 50% | spheroid growth, combination treatment ([2]; with 3.3 nM sotorasib, FIG. 12A): greater spheroid regression compared to either single agent | spheroid growth, combination treatment ([2]; with 3.7 nM trametinib, FIG. 12C): greater spheroid regression compared to either single agent | IC50 ([3]; Homo sapiens, NCI-H358, 120 h, 5 days, FIG. 11B, read-out: inhibition of cell proliferation IC50, single agent): 0.01 µM | spheroid growth, combination treatment ([3]; with 3.3 nM sotorasib, 96 h, FIG. 12B): greater spheroid regression compared to either single agent | compound-mediated spheroid growth inhibition upon knockdown ([4]; FIG. 13C): attenuated upon knockdown of GCN2 but not PERK | reduction of compound-mediated upregulation of ATF4 ([4]; upon knockdown of GCN2, FIG. 13B): 75% | reduction of compound-mediated upregulation of ATF4 ([4]; upon knockdown of PERK, FIG. 13B): 50% | mean tumor growth inhibition [5]: 69%

From US20230382915A1, “GCN2 AND PERK KINASE INHIBITORS AND METHODS OF USE THEREOF” (Deciphera Pharmaceuticals, LLC, priority 2021, published 2023)
